Laboratory results: ChEMBL document CHEMBL1156278, “Novel benzothiophene H1-antihistamines for the treatment of insomnia” (Bioorg Med Chem Lett, 2010)
Active and inactive are the calls of the source. The calls are words filed in the database; no cut-off is given here.

Key:
[1] = molecular target: Cytochrome P450 3A4 (Homo sapiens, UniProt P08684); assay: Inhibition of recombinant CYP3A4 after 30 mins by fluorescence assay
[2] = molecular target: Histamine H1 receptor (Homo sapiens, UniProt P35367); assay: Displacement of [3H]pyrilamine from human histamine H1 receptor expressed in CHO Flp-In cells after 90 mins by scintillation counting; format: cell-based
Histamine H1 receptor, sequence (P35367 whole entry): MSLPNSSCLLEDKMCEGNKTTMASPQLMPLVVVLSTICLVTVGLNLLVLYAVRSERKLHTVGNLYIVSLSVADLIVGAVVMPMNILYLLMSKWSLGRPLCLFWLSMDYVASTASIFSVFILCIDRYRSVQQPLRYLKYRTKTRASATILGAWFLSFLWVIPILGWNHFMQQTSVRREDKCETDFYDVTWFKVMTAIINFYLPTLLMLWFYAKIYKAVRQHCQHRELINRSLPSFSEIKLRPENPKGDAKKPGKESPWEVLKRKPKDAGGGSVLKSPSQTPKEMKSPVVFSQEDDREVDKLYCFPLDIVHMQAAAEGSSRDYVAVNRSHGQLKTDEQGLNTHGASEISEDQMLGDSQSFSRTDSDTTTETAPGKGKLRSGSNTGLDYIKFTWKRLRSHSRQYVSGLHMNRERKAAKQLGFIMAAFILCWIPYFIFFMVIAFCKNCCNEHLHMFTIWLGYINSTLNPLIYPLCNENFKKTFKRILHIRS

[3] = molecular target: T1, Voltage-gated inwardly rectifying potassium channel KCNH2 (Homo sapiens, UniProt Q12809); assay: Inhibition of human ERG expressed in HEK cells assessed as blockade of potassium tail current by standard patch clamp analysis
T1 sequence (Q12809 whole entry): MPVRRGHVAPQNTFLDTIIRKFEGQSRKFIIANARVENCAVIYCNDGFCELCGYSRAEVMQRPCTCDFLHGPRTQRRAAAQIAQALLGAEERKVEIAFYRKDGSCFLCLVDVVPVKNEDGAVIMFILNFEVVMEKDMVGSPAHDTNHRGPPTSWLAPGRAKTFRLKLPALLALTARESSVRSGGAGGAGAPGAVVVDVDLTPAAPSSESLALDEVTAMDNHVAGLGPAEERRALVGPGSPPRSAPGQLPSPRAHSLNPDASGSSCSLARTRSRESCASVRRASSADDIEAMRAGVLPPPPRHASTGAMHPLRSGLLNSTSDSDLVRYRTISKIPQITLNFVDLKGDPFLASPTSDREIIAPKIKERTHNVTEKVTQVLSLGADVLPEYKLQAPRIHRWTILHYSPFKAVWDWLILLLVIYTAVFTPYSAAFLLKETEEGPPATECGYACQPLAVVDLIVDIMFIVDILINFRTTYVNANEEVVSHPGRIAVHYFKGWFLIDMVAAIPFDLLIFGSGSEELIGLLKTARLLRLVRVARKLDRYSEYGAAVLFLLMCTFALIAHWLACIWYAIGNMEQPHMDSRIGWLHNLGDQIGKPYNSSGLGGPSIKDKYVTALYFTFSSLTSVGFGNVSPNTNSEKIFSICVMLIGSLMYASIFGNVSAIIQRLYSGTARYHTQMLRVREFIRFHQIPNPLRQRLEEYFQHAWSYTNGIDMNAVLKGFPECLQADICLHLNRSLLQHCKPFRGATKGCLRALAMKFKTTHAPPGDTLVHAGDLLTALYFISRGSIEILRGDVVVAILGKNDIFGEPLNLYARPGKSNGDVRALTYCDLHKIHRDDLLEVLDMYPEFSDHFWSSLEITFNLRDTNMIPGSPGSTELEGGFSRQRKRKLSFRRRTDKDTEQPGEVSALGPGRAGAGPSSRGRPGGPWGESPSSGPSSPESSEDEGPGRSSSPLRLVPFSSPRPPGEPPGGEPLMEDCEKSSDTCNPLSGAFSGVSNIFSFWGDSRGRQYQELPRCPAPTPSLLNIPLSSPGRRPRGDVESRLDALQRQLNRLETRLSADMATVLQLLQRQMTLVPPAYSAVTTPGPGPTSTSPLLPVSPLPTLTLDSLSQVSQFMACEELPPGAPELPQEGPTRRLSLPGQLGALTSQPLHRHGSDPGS

[4] = molecular target: T1, Voltage-gated inwardly rectifying potassium channel KCNH2; assay: Displacement of [3H]Dofetilide from human ERG
[5] = molecular target: T2, Muscarinic acetylcholine receptor M1 (Homo sapiens, UniProt P11229); assay: Displacement of [3H]N-methylscopolamine from human muscarinic M1 receptor expressed in CHO Flp-In cells after 90 mins by scintillation counting; format: cell-based
T2 sequence (P11229 whole entry): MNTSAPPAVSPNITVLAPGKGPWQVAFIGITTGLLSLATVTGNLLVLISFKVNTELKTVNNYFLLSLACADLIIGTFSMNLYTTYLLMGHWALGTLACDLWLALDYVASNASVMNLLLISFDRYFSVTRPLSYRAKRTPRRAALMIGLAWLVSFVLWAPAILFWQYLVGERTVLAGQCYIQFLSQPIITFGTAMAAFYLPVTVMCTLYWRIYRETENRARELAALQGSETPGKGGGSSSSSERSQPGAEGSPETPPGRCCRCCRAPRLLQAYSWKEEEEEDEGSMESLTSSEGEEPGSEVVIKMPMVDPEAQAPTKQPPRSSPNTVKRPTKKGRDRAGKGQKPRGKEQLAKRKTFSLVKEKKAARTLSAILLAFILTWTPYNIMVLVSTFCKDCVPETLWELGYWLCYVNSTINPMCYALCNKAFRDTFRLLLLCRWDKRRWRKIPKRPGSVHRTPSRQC

[6] = molecular target: Cytochrome P450 2D6 (Homo sapiens, UniProt P10635); assay: Inhibition of recombinant CYP2D6 after 30 mins by fluorescence assay
Cytochrome P450 2D6, sequence (P10635 whole entry): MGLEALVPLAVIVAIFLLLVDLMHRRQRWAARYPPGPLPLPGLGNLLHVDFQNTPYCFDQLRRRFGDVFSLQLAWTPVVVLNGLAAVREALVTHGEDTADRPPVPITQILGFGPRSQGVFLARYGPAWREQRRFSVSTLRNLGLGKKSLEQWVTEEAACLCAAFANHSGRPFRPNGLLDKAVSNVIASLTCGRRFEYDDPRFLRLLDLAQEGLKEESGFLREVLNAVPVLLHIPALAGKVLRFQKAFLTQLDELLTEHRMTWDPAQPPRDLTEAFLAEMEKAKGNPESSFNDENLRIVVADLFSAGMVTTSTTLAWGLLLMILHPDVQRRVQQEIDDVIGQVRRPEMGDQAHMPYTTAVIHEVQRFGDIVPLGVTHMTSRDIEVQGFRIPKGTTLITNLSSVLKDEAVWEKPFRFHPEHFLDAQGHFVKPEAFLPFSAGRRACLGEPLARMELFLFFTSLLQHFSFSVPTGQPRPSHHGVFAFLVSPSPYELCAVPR

[7] = Bioavailability in human at 0.1 mg/kg by microdose study; format: ADME, organism-based; conditions: in vivo
[8] = Drug level in rat brain at 30 mg/kg, po after 4 hrs; format: ADME, organism-based; design: dose 30 mg/kg, route oral; conditions: read-out: Drug uptake
[9] = Apparent permeability across human Caco-2 cells; format: ADME, cell-based
[10] = Ratio of drug level in rat brain to plasma at 30 mg/kg, po after 4 hrs; format: ADME, organism-based; design: dose 30 mg/kg, route oral
[11] = Drug level in rat plasma at 30 mg/kg, po after 4 hrs; format: ADME, organism-based; design: dose 30 mg/kg, route oral
[12] = Activity at P-glycoprotein
[13] = test system: Caco-2; assay: Ratio of permeability from apical to basolateral side over basolateral to apical side in human Caco-2 cells
[14] = Half life in human at 0.1 mg/kg by microdose study; format: ADME, organism-based; design: dose 0.1 mg/kg; conditions: in vivo
[15] = Systemic clearance in human at 0.1 mg/kg, iv by microdose study; format: ADME, organism-based; design: dose 0.1 mg/kg, route intravenous; conditions: in vivo
[16] = AUC (0 to t) in human at 0.1 mg/kg, po by microdose study; format: ADME, organism-based; design: dose 0.1 mg/kg, route oral; conditions: plasma
[17] = test system: Rattus norvegicus; assay: Effect on sleep-awake pattern in CD IGS rat model of insomnia assessed as latency to NREM sleep at 30 mg/kg, po by EEG/EMG study relative to control; format: functional
[18] = test system: Rattus norvegicus; assay: Effect on sleep-awake pattern in CD IGS rat model of insomnia assessed as latency to REM sleep at 30 mg/kg, po by EEG/EMG study relative to control; format: functional
[19] = test system: Rattus norvegicus; assay: Increase in REM sleep in CD IGS rat model of insomnia at 30 mg/kg, po after 4 hrs by EEG/EMG study relative to control; format: functional
[20] = test system: Rattus norvegicus; assay: Effect on sleep-awake pattern in CD IGS rat model of insomnia assessed as longest 3 NREM bouts at 30 mg/kg, po after 6 hrs by EEG/EMG study relative to control; format: functional
[21] = test system: Rattus norvegicus; assay: Increase in NREM sleep in CD IGS rat model of insomnia at 30 mg/kg, po after 4 hrs by EEG/EMG study relative to control; format: functional
[22] = test system: Rattus norvegicus; assay: Effect on sleep-awake pattern in CD IGS rat model of insomnia assessed as longest 3 REM bouts at 30 mg/kg, po after 6 hrs by EEG/EMG study relative to control; format: functional

Cytochrome P450 3A4, sequence (P08684 whole entry): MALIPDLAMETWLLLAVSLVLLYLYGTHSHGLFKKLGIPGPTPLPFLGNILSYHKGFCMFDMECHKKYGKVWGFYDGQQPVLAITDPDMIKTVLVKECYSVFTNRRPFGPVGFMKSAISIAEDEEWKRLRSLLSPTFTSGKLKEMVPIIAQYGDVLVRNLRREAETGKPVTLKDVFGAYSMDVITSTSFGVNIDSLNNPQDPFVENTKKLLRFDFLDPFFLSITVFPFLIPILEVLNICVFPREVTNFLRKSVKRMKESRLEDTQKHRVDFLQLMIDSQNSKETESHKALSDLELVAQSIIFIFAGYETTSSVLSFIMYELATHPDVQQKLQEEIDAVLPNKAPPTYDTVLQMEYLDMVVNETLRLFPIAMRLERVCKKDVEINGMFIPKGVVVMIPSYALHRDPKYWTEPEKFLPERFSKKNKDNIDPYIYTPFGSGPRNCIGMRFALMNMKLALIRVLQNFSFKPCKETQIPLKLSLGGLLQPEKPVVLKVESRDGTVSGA

Compound | IC50 [1] [µM] | Ki ([2]; read-out: Ki) [µM] | IC50 [3] [µM] | Ki [4] [µM] | Ki ([5]; read-out: Ki) [µM] | IC50 [6] [µM] | other results
COc1cccnc1[C@H](C)c1c(CCN(C)C)sc2ccccc12 | > 10 | 0.005 | 3 | > 5 | > 10 | 9.5 | –
C[C@@H](c1ccccn1)c1c(CCN(C)C)sc2ccccc12 | > 10 | 0.004 | 1.4 | > 5 | – | – | bioavailability [7]: 47%; concentration at 4 h [8]: 23 ng/g; Papp [9]: > 21.7 ×10⁻⁶ cm/s; Kp at 4 h ([10]; read-out: Ratio): 8; Ki [5]: 5.3 µM; concentration at 4 h [11]: 2.8 ng/mL; Activity [12]: inactive; Ratio [13]: > 0.7; half-life [14]: 6.8 h; clearance [15]: 6.2 mL/min/kg; AUC(0-t) [16]: 2.78 ng·h/mL
CC(c1nccs1)c1c(CCN(C)C)sc2ccccc12 (racemic) | > 10 | 0.035 | – | > 5 | 2.07 | – | –
C[C@@H](c1cncs1)c1c(CCN(C)C)sc2ccccc12 | > 10 | 0.0052 | – | > 5 | > 10 | – | –
C[C@H](c1cccnc1Cl)c1c(CCN(C)C)sc2ccccc12 | > 10 | 0.0029 | 1.5 | > 5 | > 10 | 9.5 | –
COc1ccc(C(C)c2c(CCN(C)C)sc3ccccc23)cn1 (racemic) | > 10 | 0.12 | – | > 5 | > 10 | – | –
CC(c1ccncc1)c1c(CCN(C)C)sc2ccccc12 (racemic) | 2.8 | – | – | 1.8 | 5.6 | 0.85 | Ki [2]: 0.023 µM
CC(c1c(CCN(C)C)sc2ccccc12)n1ccnc1 (racemic) | 5.2 | 0.122 | – | > 5 | – | – | –
COc1cccc(C(C)c2c(CCN(C)C)sc3ccccc23)n1 (racemic) | > 10 | 0.059 | – | > 5 | > 10 | – | –
CC(c1cccc(F)n1)c1c(CCN(C)C)sc2ccccc12 (racemic) | > 10 | 0.038 | – | > 5 | > 10 | – | –
CNCCc1sc2ccccc2c1[C@@H](C)c1ccccn1 | > 10 | 0.032 | 6.5 | > 5 | – | 9.8 | Ki [5]: 3.7 µM
C[C@@H](c1ccccn1)c1c(CCN2CCCC2)sc2ccccc12 | > 10 | – | – | 1.1 | 5.8 | 2.7 | Ki [2]: 0.0061 µM
Cc1ccnc(C(C)c2c(CCN(C)C)sc3ccccc23)c1 (racemic) | > 10 | 0.39 | – | > 5 | > 10 | – | –
Cc1ccc(C(C)c2c(CCN(C)C)sc3ccccc23)cn1 (racemic) | > 10 | 0.069 | – | > 5 | > 10 | – | –
C[C@H](c1ccccn1)c1c(CCN(C)C)sc2ccccc12 | > 10 | – | – | > 5 | 0.99 | 3.3 | Ki [2]: 0.256 µM
C[C@@H](c1ccccn1)c1c(CCN2CCC2)sc2ccccc12 | > 10 | 0.0039 | 0.73 | 4.2 | > 10 | > 10 | –
CC(c1ccccn1)c1c(CCN(C)C)sc2ccccc12 (racemic) | > 10 | 0.012 | – | > 5 | 1.4 | 6.9 | –
C[C@H](c1c(CCN(C)C)sc2ccccc12)n1cccn1 | > 10 | 0.0044 | 2 | > 5 | > 10 | – | concentration at 4 h [8]: 11 ng/g; Papp [9]: > 21.7 ×10⁻⁶ cm/s; Kp at 4 h ([10]; read-out: BPR): 20; concentration at 4 h [11]: 0.6 ng/mL; Activity [12]: inactive; Ratio [13]: > 0.7
C[C@@H](c1ncccc1Cl)c1c(CCN(C)C)sc2ccccc12 | > 10 | 0.008 | – | > 5 | > 10 | 1.5 | –
C[C@@H](c1cscn1)c1c(CCN(C)C)sc2ccccc12 | > 10 | 0.0046 | – | – | 4.76 | – | –
Cc1cccnc1[C@H](C)c1c(CCN(C)C)sc2ccccc12 | > 10 | 0.0093 | – | – | > 10 | – | –
Cc1ccc(-c2nc3ccc(C)cn3c2CC(=O)N(C)C)cc1 [ZOLPIDEM] | – | – | – | – | – | – | Activity [17]: 6 min; Activity [18]: 101 min; Activity [19]: 2.3%; Activity [20]: 14.5 min; Activity [21]: 47.8%; Activity [22]: 1.2 min
C[C@@H](c1ncccc1F)c1c(CCN(C)C)sc2ccccc12 | > 10 | 0.0027 | 0.33 | > 5 | 2.2 | 4 | –
C[C@@H](c1ccc(F)cn1)c1c(CCN(C)C)sc2ccccc12 | > 10 | 0.013 | 0.24 | 2.5 | > 10 | > 10 | –
Cc1ncccc1[C@@H](C)c1c(CCN(C)C)sc2ccccc12 | > 10 | 0.017 | – | > 5 | > 10 | > 10 | –
